Here are results for 7 compounds from PMC9516332 (Frontiers in Oncology, 2022).

Holding throughout (assay): Kinase panel profiling at 1 µmol/L (MSA or IMAP), percentage inhibition
Type in all cases: biochemical

Experiment [1] addresses T1, panel of 255 wild-type kinases (Homo sapiens, UniProt P54753).
T1 sequence (P54753 34-998): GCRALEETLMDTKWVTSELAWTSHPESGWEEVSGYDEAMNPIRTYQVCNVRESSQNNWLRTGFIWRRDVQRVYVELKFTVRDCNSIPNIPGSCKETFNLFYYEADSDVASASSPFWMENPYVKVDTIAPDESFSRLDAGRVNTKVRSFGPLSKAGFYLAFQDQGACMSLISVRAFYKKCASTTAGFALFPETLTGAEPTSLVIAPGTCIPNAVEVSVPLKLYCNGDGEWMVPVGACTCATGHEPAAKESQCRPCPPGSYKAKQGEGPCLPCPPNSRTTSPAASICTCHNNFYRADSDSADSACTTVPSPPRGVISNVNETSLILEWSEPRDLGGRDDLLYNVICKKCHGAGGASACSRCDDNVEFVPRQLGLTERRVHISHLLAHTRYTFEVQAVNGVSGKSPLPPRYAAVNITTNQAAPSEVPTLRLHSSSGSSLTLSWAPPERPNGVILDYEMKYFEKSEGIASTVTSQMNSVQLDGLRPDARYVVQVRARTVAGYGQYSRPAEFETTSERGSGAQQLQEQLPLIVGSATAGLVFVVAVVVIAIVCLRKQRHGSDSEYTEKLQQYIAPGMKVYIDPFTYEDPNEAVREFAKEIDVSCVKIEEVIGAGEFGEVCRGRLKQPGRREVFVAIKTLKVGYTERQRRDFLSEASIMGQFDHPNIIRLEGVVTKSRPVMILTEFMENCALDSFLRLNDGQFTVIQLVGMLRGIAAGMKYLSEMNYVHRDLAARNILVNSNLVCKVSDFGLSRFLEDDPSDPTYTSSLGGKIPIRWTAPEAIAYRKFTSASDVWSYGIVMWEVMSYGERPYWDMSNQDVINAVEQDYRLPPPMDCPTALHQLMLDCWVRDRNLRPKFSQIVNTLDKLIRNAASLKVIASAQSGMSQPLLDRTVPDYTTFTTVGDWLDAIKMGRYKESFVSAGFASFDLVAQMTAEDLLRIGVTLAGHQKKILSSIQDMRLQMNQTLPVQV
To be noted: read-out: %-inhibition at 1 µmol/L, EPHB3.

Experiment [2] addresses panel of 255 wild-type kinases (Homo sapiens, UniProt P09769). To be noted: read-out: %-inhibition at 1 µmol/L, FGR.
The target in experiment [3] is panel of 255 wild-type kinases (Homo sapiens, UniProt P05771). To be noted: read-out: %-inhibition at 1 µmol/L, PKCβ1.
Experiment [4] has as its target T2, panel of 255 wild-type kinases (Homo sapiens, UniProt O15146).
T2 sequence (O15146 24-869): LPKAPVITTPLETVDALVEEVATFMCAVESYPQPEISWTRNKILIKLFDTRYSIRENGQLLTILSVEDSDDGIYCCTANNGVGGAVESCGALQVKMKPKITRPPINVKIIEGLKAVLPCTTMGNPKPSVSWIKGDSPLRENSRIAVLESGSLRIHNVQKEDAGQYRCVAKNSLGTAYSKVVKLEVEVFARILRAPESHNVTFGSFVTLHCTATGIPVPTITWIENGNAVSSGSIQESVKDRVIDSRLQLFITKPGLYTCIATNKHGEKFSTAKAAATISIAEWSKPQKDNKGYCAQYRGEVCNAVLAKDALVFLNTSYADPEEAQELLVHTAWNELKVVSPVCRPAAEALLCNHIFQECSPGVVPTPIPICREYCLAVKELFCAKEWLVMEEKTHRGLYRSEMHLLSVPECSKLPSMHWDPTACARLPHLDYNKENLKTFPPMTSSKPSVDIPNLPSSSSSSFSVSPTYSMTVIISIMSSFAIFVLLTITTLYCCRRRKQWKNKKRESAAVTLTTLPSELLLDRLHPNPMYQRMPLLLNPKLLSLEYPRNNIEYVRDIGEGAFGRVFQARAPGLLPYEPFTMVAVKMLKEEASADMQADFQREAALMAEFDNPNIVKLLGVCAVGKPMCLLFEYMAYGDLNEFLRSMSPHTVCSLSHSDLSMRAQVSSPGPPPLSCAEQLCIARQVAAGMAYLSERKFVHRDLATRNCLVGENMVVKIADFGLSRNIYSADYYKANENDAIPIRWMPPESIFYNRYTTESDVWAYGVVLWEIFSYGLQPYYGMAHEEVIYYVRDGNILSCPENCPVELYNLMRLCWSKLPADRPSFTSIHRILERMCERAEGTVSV
To be noted: read-out: %-inhibition, MUSK.

Experiment [5] relates to panel of 255 wild-type kinases.
Experiment [6] addresses panel of 255 wild-type kinases (Homo sapiens, UniProt Q13882). To be noted: read-out: %-inhibition BRK.
[7] abbreviates: kinase EPHB3, 1 µmol/L single concentration.
[8] abbreviates: kinase FGR, 1 µmol/L single concentration.
[9] abbreviates: kinase PKCβ1, 1 µmol/L single concentration.
Where [10] appears, read: MUSK, 1 µmol/L single concentration.
Where [11] appears, read: kinase FYN [isoform b], 1 µmol/L single concentration.
Setting [12] is: kinase LYNb, 1 µmol/L single concentration.
The mark [13] stands for this setting: kinase PKCβ2, 1 µmol/L single concentration.
Setting [14] is: kinase SRM, 1 µmol/L single concentration.
Setting [15] is: BRK kinase assay, 1 µmol/L single concentration.

Read-outs that look alike come from different tables or passages of the source.

As for `Cc1nc(NC(=O)N2CCC[C@H]2C(N)=O)sc1-c1ccnc(C(C)(C)C(F)(F)F)c1` [alpelisib], the inhibition at 1 µM in experiment [1] (setting [7]) is -0.582%; in experiment [2] (setting [8]), 2%; in experiment [3] (setting [9]), 7%; in experiment [4] (setting [10]) it was -8%; in experiment [6] (setting [15]) it was 2.75%. The “%-inhibition at 1 µmol/L, FYN [isoform b]” value (“%-inhibition … [isoform b]” below) in experiment [5] (setting [11]) is -5.63%. In experiment [5] (setting [12]), the “%-inhibition at 1 µmol/L, LYNb” value is 4.67%. For the same compound, the “%-inhibition at 1 µmol/L, PKCβ2” value in experiment [5] (setting [13]) is 2.32%. Also, in experiment [5] (setting [14]), the “%-inhibition at 1 µmol/L, SRM” value was determined as 1%.

In the case of `Cn1cc(-c2cc3c(N4CCN(c5ncc([C@@](C)(N)c6ccc(F)cc6)cn5)CC4)ncnn3c2)cn1` [avapritinib], the inhibition at 1 µM came out at 3% in experiment [1] (setting [7]); 66% in experiment [2] (setting [8]); 1.74% in experiment [3] (setting [9]); 63% in experiment [4] (setting [10]); 0.682% in experiment [6] (setting [15]). The “%-inhibition … [isoform b]” value in experiment [5] (setting [11]) is given as 3%. Further, the “%-inhibition at 1 µmol/L, LYNb” value in experiment [5] (setting [12]) is recorded as 83%. In addition, the “%-inhibition at 1 µmol/L, PKCβ2” value in experiment [5] (setting [13]) is given as -0.278%. The “%-inhibition at 1 µmol/L, SRM” value in experiment [5] (setting [14]) turned out to be 0.441%.

As to `Cn1cnc2c(F)c(Nc3ccc(Br)cc3F)c(C(=O)NOCCO)cc21` [binimetinib], the inhibition at 1 µM in experiment [1] (setting [7]) is 3.28%; in experiment [2] (setting [8]), 0.0227%; in experiment [3] (setting [9]), -3.39%; in experiment [4] (setting [10]), -4.46%; in experiment [6] (setting [15]), 1.08%. For the same compound, in experiment [5] (setting [11]), the “%-inhibition … [isoform b]” value was 4%. Moreover, the “%-inhibition at 1 µmol/L, LYNb” value in experiment [5] (setting [12]) is on record as 4.22%. In experiment [5] (setting [13]), the “%-inhibition at 1 µmol/L, PKCβ2” value is on record as -1.88%. Also, the “%-inhibition at 1 µmol/L, SRM” value in experiment [5] (setting [14]) is -1.11%.

As for `CNC(=O)c1ccc(-c2cnc3ncc(Cc4ccc5ncccc5c4)n3n2)cc1F` [capmatinib], the inhibition at 1 µM in experiment [1] was 0.192%; in experiment [2], -1.79%; in experiment [3], 1.2%; in experiment [4], 1.33%; in experiment [6], -0.67%. In addition, the “%-inhibition … [isoform b]” value in experiment [5] is reported as -1.2%. Also, in experiment [5], the “%-inhibition at 1 µmol/L, LYNb” value was found to be 0.305%. Besides, the “%-inhibition at 1 µmol/L, PKCβ2” value in experiment [5] is listed as -2%. In experiment [5], the “%-inhibition at 1 µmol/L, SRM” value is reported as -0.916%.

For `COc1cc2ncnc(Nc3ccc(F)c(Cl)c3)c2cc1NC(=O)/C=C/CN1CCCCC1` [dacomitinib], the inhibition at 1 µM in experiment [1] (setting [7]) was 2%; in experiment [2] (setting [8]) it was 58%; in experiment [3] (setting [9]) it was 3.74%; in experiment [4] (setting [10]) it was 22%; in experiment [6] (setting [15]), 53%. In addition, the “%-inhibition … [isoform b]” value in experiment [5] (setting [11]) was found to be 37%. Moreover, the “%-inhibition at 1 µmol/L, LYNb” value in experiment [5] (setting [12]) is 74%. In experiment [5] (setting [13]), the “%-inhibition at 1 µmol/L, PKCβ2” value worked out at 5.44%. Also, in experiment [5] (setting [14]), the “%-inhibition at 1 µmol/L, SRM” value is on record as 1.79%.

As for `C[C@H](Nc1ncnc2nc[nH]c12)c1cc2cccc(Cl)c2c(=O)n1-c1ccccc1` [duvelisib], the inhibition at 1 µM in experiment [1] (setting [7]) was 4%; in experiment [2] (setting [8]), 3.24%; in experiment [3] (setting [9]), 5%; in experiment [4] (setting [10]), -4.45%; in experiment [6] (setting [15]), 4.54%. For the same compound, the “inhibition of profiled kinases in biochemical assays” value in experiment [5] (1 µmol/L inhibitor) is reported as “did not inhibit FLT3 or any of the other profiled tyrosine or serine/threonine kinases”. Further, the “%-inhibition … [isoform b]” value in experiment [5] (setting [11]) came out at 0.6%. In experiment [5] (setting [12]), the “%-inhibition at 1 µmol/L, LYNb” value worked out at 3%. In addition, the “%-inhibition at 1 µmol/L, PKCβ2” value in experiment [5] (setting [13]) turned out to be 1.61%. For the same compound, in experiment [5] (setting [14]), the “%-inhibition at 1 µmol/L, SRM” value is 4%.

For `COC(=O)N[C@@H](C)CNc1nccc(-c2cn(C(C)C)nc2-c2cc(Cl)cc(NS(C)(=O)=O)c2F)n1` [encorafenib], the inhibition at 1 µM in experiment [1] (setting [7]) is 4%; in experiment [2] (setting [8]), 1.37%; in experiment [3] (setting [9]), -1%; in experiment [4] (setting [10]), -1.72%; in experiment [6] (setting [15]), 25%. For the same compound, in experiment [5] (setting [11]), the “%-inhibition … [isoform b]” value is 4.62%. In addition, the “%-inhibition at 1 µmol/L, LYNb” value in experiment [5] (setting [12]) came to 4%. Further, the “%-inhibition at 1 µmol/L, PKCβ2” value in experiment [5] (setting [13]) came to 2.15%. Further, the “%-inhibition at 1 µmol/L, SRM” value in experiment [5] (setting [14]) stood at 85%.
